How the values were obtained:
Test in all cases: relative viability (nuclei count vs DMSO), 5 days (fraction); higher = more cells survive
Seliciclib + Linsitinib = compound: CC[C@H](CO)Nc1nc(NCc2ccccc2)c2ncn(C(C)C)c2n1 [Seliciclib] + C[C@]1(O)C[C@@H](c2nc(-c3ccc4ccc(-c5ccccc5)nc4c3)c3c(N)nccn32)C1 [Linsitinib] (partner 1 µM)
In short: (§1)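 Cells from lung cancer lines were seeded into 1536-well plates and, one day later, dosed by pin tool. Treatments were either a single drug or a fixed dose of an anchor drug with five library-drug doses (not always all listed) in √10 steps. After 5 days, nuclei were stained in a one-step fixation (final 0.05% Triton X-100, 1% formaldehyde, 1 ug/ml Hoechst) and counted on 4× images, and relative viability is the treated-to-vehicle nuclei ratio, as the median of duplicate plates.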

Seliciclib + Lapatinib = compound: CC[C@H](CO)Nc1nc(NCc2ccccc2)c2ncn(C(C)C)c2n1 [Seliciclib] + CS(=O)(=O)CCNCc1ccc(-c2ccc3ncnc(Nc4ccc(OCc5cccc(F)c5)c(Cl)c4)c3c2)o1 [Lapatinib] (partner 2 µM)
In short: as §1

Seliciclib + Alpelisib = compound: CC[C@H](CO)Nc1nc(NCc2ccccc2)c2ncn(C(C)C)c2n1 [Seliciclib] + Cc1nc(NC(=O)N2CCC[C@H]2C(N)=O)sc1-c1ccnc(C(C)(C)C(F)(F)F)c1 [Alpelisib] (partner 2 µM)
In short: as §1

Seliciclib + OSI-027 = compound: CC[C@H](CO)Nc1nc(NCc2ccccc2)c2ncn(C(C)C)c2n1 [Seliciclib] + COc1cccc2cc(-c3nc([C@H]4CC[C@H](C(=O)O)CC4)n4ncnc(N)c34)[nH]c12 [OSI-027] (partner 0.5 µM)
In short: as §1

Cell Line	relative viability (Seliciclib + Linsitinib; first compound 0.08 µM)	relative viability (Seliciclib + Linsitinib; first compound 0.253 µM)	relative viability (Seliciclib + Linsitinib; first compound 0.8 µM)	relative viability (Seliciclib + Linsitinib; first compound 2.53 µM)	relative viability (Seliciclib + Linsitinib; first compound 8 µM)	relative viability (Seliciclib + Lapatinib; first compound 0.08 µM)	relative viability (Seliciclib + Lapatinib; first compound 0.253 µM)	relative viability (Seliciclib + Lapatinib; first compound 0.8 µM)	relative viability (Seliciclib + Lapatinib; first compound 2.53 µM)	relative viability (Seliciclib + Lapatinib; first compound 8 µM)	relative viability (Seliciclib + Alpelisib; first compound 0.08 µM)	relative viability (Seliciclib + Alpelisib; first compound 0.253 µM)	relative viability (Seliciclib + Alpelisib; first compound 0.8 µM)	relative viability (Seliciclib + Alpelisib; first compound 2.53 µM)	relative viability (Seliciclib + Alpelisib; first compound 8 µM)	relative viability (Seliciclib + OSI-027; first compound 0.08 µM)	relative viability (Seliciclib + OSI-027; first compound 0.253 µM)	relative viability (Seliciclib + OSI-027; first compound 0.8 µM)	relative viability (Seliciclib + OSI-027; first compound 2.53 µM)	relative viability (Seliciclib + OSI-027; first compound 8 µM)
LU99A	0.565	0.466	0.474	0.497	0.494	1.01	0.923	1.02	0.666	0.537	0.491	0.518	0.452	0.359	0.416	0.286	0.265	0.323	0.221	0.323
LXF-289	0.945	1.03	0.908	0.947	0.914	0.908	1.04	0.806	0.891	0.791	1.01	1.09	1.02	1.02	0.891	0.781	0.667	0.769	0.421	0.762
NCI-H23	0.616	0.392	0.505	0.599	0.419	0.97	1.08	1.19	0.657	0.851	0.612	0.447	0.603	0.504	0.562	0.645	0.408	0.652	0.267	0.505
NCI-H322M	1.02	0.932	1.05	0.977	0.803	0.67	0.641	0.509	0.443	0.457	0.87	0.876	0.692	0.822	0.73	0.561	0.482	0.516	0.348	0.43
NCI-H358	0.613	0.634	0.617	0.609	0.445	0.429	0.5	0.407	0.305	0.253	0.789	0.887	0.913	0.741	0.444	0.79	0.501	0.652	0.58	0.448
NCI-H460	0.797	0.795	0.75	1	0.637	0.895	1.04	0.922	1.34	0.826	0.426	0.485	0.381	0.538	0.385	0.706	0.601	0.672	0.563	0.561
NCI-H520	0.954	0.762	0.924	0.949	0.935	0.858	0.727	0.831	0.933	0.674	0.897	0.682	0.831	1.02	0.931	0.275	–	0.324	0.277	0.228
NCI-H596	1.09	0.636	0.996	1.12	1.1	0.969	0.831	1.1	1.21	0.939	0.522	0.428	0.498	0.506	0.468	0.784	–	0.607	0.812	0.657
NCI-H647	1.22	1.12	1.11	1.19	0.718	1.25	1.11	1.07	1.28	1.01	0.952	1.1	0.978	1.15	0.618	0.616	–	0.652	0.552	0.534
NCI-H650	0.833	0.925	1.17	–	0.897	0.953	1.12	1.1	–	0.765	1.05	1.02	1.35	–	0.872	0.539	0.497	0.651	0.313	0.495
NCI-H661	0.545	0.542	0.543	0.518	0.451	0.522	0.463	0.473	0.452	0.391	0.736	0.781	0.653	0.437	0.5	0.757	0.741	0.687	0.65	0.637
NCI-H727	0.306	0.245	0.222	0.226	0.251	0.936	0.75	0.556	0.518	0.634	0.571	0.696	0.49	0.526	0.538	0.792	0.687	0.465	0.338	0.636
NCI-H838	0.933	0.864	0.943	1.07	0.966	0.967	0.92	0.926	0.868	0.362	0.971	0.853	0.884	1.14	0.94	0.425	0.44	0.325	0.247	0.292
NCI-H1355	0.788	0.73	0.792	0.892	0.812	0.961	0.834	0.94	0.927	0.929	0.784	0.754	0.822	0.919	0.831	0.462	0.303	0.372	0.288	0.39
NCI-H1395	0.961	0.739	1	1.06	1.28	1.03	0.811	1.09	0.871	0.861	1.08	0.843	1.04	1.07	1.02	0.728	0.576	0.606	0.612	0.587
NCI-H1437	1.02	1.06	0.974	1.16	0.786	0.824	0.949	0.882	0.777	0.618	0.919	0.855	1.02	1.02	0.935	0.844	0.877	0.99	0.52	0.787
NCI-H1563	1.15	0.925	1.11	1.21	1.12	1.03	0.842	0.957	0.851	0.845	0.952	0.872	0.954	0.927	0.882	0.766	0.709	0.725	0.747	0.792

From the supplement of paper PMC10307832
